Experimental data taken from ChEMBL document CHEMBL1201861, “Genomics of Drug Sensitity in Cancer screening data, Wellcome Trust Sanger Institute”.

Columns and labels:
Assay in all cases: cells
Conditions in all cases: Homo sapiens
K5 = assay type: functional, cell-based
Description: SANGER: Inhibition of human K5 cell growth in a cell viability assay.

D283 Med = assay type: functional, cell-based
Description: SANGER: Inhibition of human D-283MED cell growth in a cell viability assay.

D-263MG = assay type: functional, cell-based
Description: SANGER: Inhibition of human D-263MG cell growth in a cell viability assay.

BT-474 = assay type: functional, cell-based
Description: SANGER: Inhibition of human BT-474 cell growth in a cell viability assay.

LS-123 = assay type: functional, cell-based
Description: SANGER: Inhibition of human LS-123 cell growth in a cell viability assay.

SH-4 = assay type: functional, cell-based
Description: SANGER: Inhibition of human SH-4 cell growth in a cell viability assay.

J-RT3-T3-5 = assay type: functional, cell-based
Description: SANGER: Inhibition of human J-RT3-T3-5 cell growth in a cell viability assay.

SHP77 = assay type: functional, cell-based, SHP-77
Description: SANGER: Inhibition of human SHP-77 cell growth in a cell viability assay.

MLMA = assay type: functional, cell-based
Description: SANGER: Inhibition of human MLMA cell growth in a cell viability assay.

MOLT-4 = assay type: functional, cell-based
Description: SANGER: Inhibition of human MOLT-4 cell growth in a cell viability assay.

CGTH-W-1 = assay type: functional, cell-based
Description: SANGER: Inhibition of human CGTH-W-1 cell growth in a cell viability assay.

ES3 = assay type: functional, cell-based
Description: SANGER: Inhibition of human ES3 cell growth in a cell viability assay.

KNS-42 = assay type: functional, cell-based
Description: SANGER: Inhibition of human KNS-42 cell growth in a cell viability assay.

LNCaP-Clone-FGC = assay type: functional, cell-based
Description: SANGER: Inhibition of human LNCaP-Clone-FGC cell growth in a cell viability assay.

COR-L88 = assay type: functional, cell-based
Description: SANGER: Inhibition of human COR-L88 cell growth in a cell viability assay.

HEL = assay type: functional, cell-based
Description: SANGER: Inhibition of human HEL cell growth in a cell viability assay.

LB1047-RCC = assay type: functional, cell-based
Description: SANGER: Inhibition of human LB1047-RCC cell growth in a cell viability assay.

P30-OHK = assay type: functional, cell-based
Description: SANGER: Inhibition of human P30-OHK cell growth in a cell viability assay.

NTERA-2-cl-D1 = assay type: functional, cell-based
Description: SANGER: Inhibition of human NTERA-S-cl-D1 cell growth in a cell viability assay.

CCRF-CEM = assay type: functional, cell-based
Description: SANGER: Inhibition of human CCRF-CEM cell growth in a cell viability assay.

JVM-2 = assay type: functional, cell-based
Description: SANGER: Inhibition of human JVM-2 cell growth in a cell viability assay.

OMC-1 = assay type: functional, cell-based
Description: SANGER: Inhibition of human OMC-1 cell growth in a cell viability assay.

LB373-MEL-D = assay type: functional, cell-based
Description: SANGER: Inhibition of human LB373-MEL-D cell growth in a cell viability assay.

SK-N-DZ = assay type: functional, cell-based
Description: SANGER: Inhibition of human SK-N-DZ cell growth in a cell viability assay.

GCIY = assay type: functional, cell-based
Description: SANGER: Inhibition of human GCIY cell growth in a cell viability assay.

NCI-H1648 = assay type: functional, cell-based
Description: SANGER: Inhibition of human NCI-H1648 cell growth in a cell viability assay.

EM-2 = assay type: functional, cell-based
Description: SANGER: Inhibition of human EM-2 cell growth in a cell viability assay.

NCI-H1650 = assay type: functional, cell-based
Description: SANGER: Inhibition of human NCI-H1650 cell growth in a cell viability assay.

KNS-81-FD = assay type: functional, cell-based
Description: SANGER: Inhibition of human KNS-81-FD cell growth in a cell viability assay.

HCE-T = assay type: functional, cell-based
Description: SANGER: Inhibition of human HCE-T cell growth in a cell viability assay.

8-MG-BA = assay type: functional, cell-based
Description: SANGER: Inhibition of human 8-MG-BA cell growth in a cell viability assay.

ES8 = assay type: functional, cell-based
Description: SANGER: Inhibition of human ES8 cell growth in a cell viability assay.

U-266 = assay type: functional, cell-based
Description: SANGER: Inhibition of human U-266 cell growth in a cell viability assay.

EW-11 = assay type: functional, cell-based
Description: SANGER: Inhibition of human EW-11 cell growth in a cell viability assay.

GOTO = assay type: functional, cell-based
Description: SANGER: Inhibition of human GOTO cell growth in a cell viability assay.

GT3TKB = assay type: functional, cell-based
Description: SANGER: Inhibition of human GT3TKB cell growth in a cell viability assay.

Lu-65 = assay type: functional, cell-based
Description: SANGER: Inhibition of human LU-65 cell growth in a cell viability assay.

GR-ST = assay type: functional, cell-based
Description: SANGER: Inhibition of human GR-ST cell growth in a cell viability assay.

KALS-1 = assay type: functional, cell-based
Description: SANGER: Inhibition of human KALS-1 cell growth in a cell viability assay.

KU812 cell line = assay type: functional, cell-based
Description: SANGER: Inhibition of human KU812 cell growth in a cell viability assay.

KURAMOCHI = assay type: functional, cell-based
Description: SANGER: Inhibition of human KURAMOCHI cell growth in a cell viability assay.

KY821 = assay type: functional, cell-based
Description: SANGER: Inhibition of human KY821 cell growth in a cell viability assay.

EC-GI-10 = assay type: functional, cell-based
Description: SANGER: Inhibition of human EC-GI-10 cell growth in a cell viability assay.

NCI-H720 = assay type: functional, cell-based
Description: SANGER: Inhibition of human NCI-H720 cell growth in a cell viability assay.

KS-1 = assay type: functional, cell-based
Description: SANGER: Inhibition of human KS-1 cell growth in a cell viability assay.

BB65-RCC = assay type: functional, cell-based
Description: SANGER: Inhibition of human BB65-RCC cell growth in a cell viability assay.

EW-24 = assay type: functional, cell-based
Description: SANGER: Inhibition of human EW-24 cell growth in a cell viability assay.

IST-MES1 = assay type: functional, cell-based
Description: SANGER: Inhibition of human IST-MES1 cell growth in a cell viability assay.

DSH1 = assay type: functional, cell-based
Description: SANGER: Inhibition of human DSH1 cell growth in a cell viability assay.

LS-411N = assay type: functional, cell-based
KE-37 = assay type: functional, cell-based
Description: SANGER: Inhibition of human KE-37 cell growth in a cell viability assay.

ALL-PO = assay type: functional, cell-based
Description: SANGER: Inhibition of human ALL-PO cell growth in a cell viability assay.

NCI-H23 = assay type: functional, cell-based
Description: SANGER: Inhibition of human NCI-H23 cell growth in a cell viability assay.

NB5 = assay type: functional, cell-based
Description: SANGER: Inhibition of human NB5 cell growth in a cell viability assay.

NMC-G1 = assay type: functional, cell-based
Description: SANGER: Inhibition of human NMC-G1 cell growth in a cell viability assay.

NEC8 = assay type: functional, cell-based
Description: SANGER: Inhibition of human NEC8 cell growth in a cell viability assay.

HOP-62 = assay type: functional, cell-based
Description: SANGER: Inhibition of human HOP-62 cell growth in a cell viability assay.

SBC-1 = assay type: functional, cell-based
Description: SANGER: Inhibition of human SBC-1 cell growth in a cell viability assay.

COLO-668 = assay type: functional, cell-based
Description: SANGER: Inhibition of human COLO-668 cell growth in a cell viability assay.

MSTO-211H = assay type: functional, cell-based
Description: SANGER: Inhibition of human MSTO-211H cell growth in a cell viability assay.

TK-10 = assay type: functional, cell-based
Description: SANGER: Inhibition of human TK10 cell growth in a cell viability assay.

C2BBe1 = assay type: functional, cell-based
Description: SANGER: Inhibition of human C2BBe1 cell growth in a cell viability assay.

RH-1 = assay type: functional, cell-based
Description: SANGER: Inhibition of human RH-1 cell growth in a cell viability assay.

SCC-15 = assay type: functional, cell-based
Description: SANGER: Inhibition of human SCC-15 cell growth in a cell viability assay.

## CCn1c(-c2nonc2N)nc2cnc(Oc3cccc(NC(=O)c4ccc(OCCN5CCOCC5)cc4)c3)cc21 [GSK-269962A]
K5
  IC50: > 2.5 µM
D283 Med
  IC50: > 2.5 µM
D-263MG
  IC50: 0.0851 µM
BT-474
  IC50: > 2.5 µM
LS-123
  IC50: > 2.5 µM
SH-4
  IC50: > 2.5 µM
J-RT3-T3-5
  IC50: > 2.5 µM
SHP77
  IC50: > 2.5 µM
MLMA
  IC50: > 2.5 µM
MOLT-4
  IC50: > 2.5 µM
CGTH-W-1
  IC50: > 2.5 µM
ES3
  IC50: > 2.5 µM
KNS-42
  IC50: > 2.5 µM
LNCaP-Clone-FGC
  IC50: > 2.5 µM
COR-L88
  IC50: > 2.5 µM
HEL
  IC50: > 2.5 µM
LB1047-RCC
  IC50: > 2.5 µM
P30-OHK
  IC50: > 2.5 µM
NTERA-2-cl-D1
  IC50: > 2.5 µM
CCRF-CEM
  IC50: > 2.5 µM
JVM-2
  IC50: > 2.5 µM
OMC-1
  IC50: > 2.5 µM
LB373-MEL-D
  IC50: > 2.5 µM
SK-N-DZ
  IC50: > 2.5 µM
GCIY
  IC50: > 2.5 µM
NCI-H1648
  IC50: > 2.5 µM
EM-2
  IC50: 2.46 µM
NCI-H1650
  IC50: > 2.5 µM
KNS-81-FD
  IC50: > 2.5 µM
HCE-T
  IC50: > 2.5 µM
8-MG-BA
  IC50: > 2.5 µM
ES8
  IC50: 0.819 µM
U-266
  IC50: > 2.5 µM
EW-11
  IC50: > 2.5 µM
GOTO
  IC50: > 2.5 µM
GT3TKB
  IC50: 1.6 µM
Lu-65
  IC50: > 2.5 µM
GR-ST
  IC50: > 2.5 µM
KALS-1
  IC50: > 2.5 µM
KU812 cell line
  IC50: > 2.5 µM
KURAMOCHI
  IC50: > 2.5 µM
KY821
  IC50: > 2.5 µM
EC-GI-10
  IC50: > 2.5 µM
NCI-H720
  IC50: 2.45 µM
KS-1
  IC50: 0.0046 µM
BB65-RCC
  IC50: > 2.5 µM
EW-24
  IC50: > 2.5 µM
IST-MES1
  IC50: > 2.5 µM
DSH1
  IC50: > 2.5 µM
LS-411N
  IC50: > 2.5 µM
KE-37
  IC50: > 2.5 µM
ALL-PO
  IC50: > 2.5 µM
NCI-H23
  IC50: > 2.5 µM
NB5
  IC50: > 2.5 µM
NMC-G1
  IC50: > 2.5 µM
NEC8
  IC50: > 2.5 µM
HOP-62
  IC50: > 2.5 µM
SBC-1
  IC50: > 2.5 µM
COLO-668
  IC50: > 2.5 µM
MSTO-211H
  IC50: > 2.5 µM
TK-10
  IC50: > 2.5 µM
C2BBe1
  IC50: > 2.5 µM
RH-1
  IC50: > 2.5 µM

## Cc1ccc(NC(=O)c2cccc(C(C)(C)C#N)c2)cc1Nc1ccc2ncn(C)c(=O)c2c1
K5
  IC50: 0.134 µM
D283 Med
  IC50: > 4 µM
D-263MG
  IC50: > 4 µM
BT-474
  IC50: > 4 µM
LS-123
  IC50: > 4 µM
SH-4
  IC50: < 0.0156 µM
J-RT3-T3-5
  IC50: > 4 µM
SHP77
  IC50: > 4 µM
MLMA
  IC50: > 4 µM
MOLT-4
  IC50: > 4 µM
CGTH-W-1
  IC50: 0.121 µM
ES3
  IC50: > 4 µM
KNS-42
  IC50: > 4 µM
LNCaP-Clone-FGC
  IC50: > 4 µM
COR-L88
  IC50: > 4 µM
HEL
  IC50: > 4 µM
LB1047-RCC
  IC50: > 4 µM
P30-OHK
  IC50: > 4 µM
NTERA-2-cl-D1
  IC50: > 4 µM
CCRF-CEM
  IC50: > 4 µM
JVM-2
  IC50: > 4 µM
OMC-1
  IC50: > 4 µM
LB373-MEL-D
  IC50: 1.66 µM
SK-N-DZ
  IC50: > 4 µM
GCIY
  IC50: > 4 µM
NCI-H1648
  IC50: 0.673 µM
EM-2
  IC50: 0.196 µM
NCI-H1650
  IC50: > 4 µM
KNS-81-FD
  IC50: > 4 µM
HCE-T
  IC50: > 4 µM
8-MG-BA
  IC50: > 4 µM
ES8
  IC50: > 4 µM
U-266
  IC50: > 4 µM
EW-11
  IC50: > 4 µM
GOTO
  IC50: > 4 µM
GT3TKB
  IC50: > 4 µM
Lu-65
  IC50: > 4 µM
GR-ST
  IC50: > 4 µM
KALS-1
  IC50: > 4 µM
KU812 cell line
  IC50: > 4 µM
KURAMOCHI
  IC50: > 4 µM
KY821
  IC50: > 4 µM
EC-GI-10
  IC50: > 4 µM
NCI-H720
  IC50: > 4 µM
KS-1
  IC50: 0.393 µM
BB65-RCC
  IC50: > 4 µM
EW-24
  IC50: 2.71 µM
IST-MES1
  IC50: > 4 µM
DSH1
  IC50: > 4 µM
LS-411N
  IC50: 0.0916 µM
KE-37
  IC50: > 4 µM
ALL-PO
  IC50: 1.35 µM
NCI-H23
  IC50: > 4 µM
NB5
  IC50: 1.95 µM
NMC-G1
  IC50: > 4 µM
NEC8
  IC50: > 4 µM
HOP-62
  IC50: > 4 µM
SCC-15
  IC50: > 4 µM
SBC-1
  IC50: > 4 µM
COLO-668
  IC50: > 4 µM
MSTO-211H
  IC50: 3.95 µM
TK-10
  IC50: > 4 µM
C2BBe1
  IC50: > 4 µM
RH-1
  IC50: > 4 µM
